Laboratory results as given in US20150218222A1, “Medicaments” (ARMO BioSciences, Inc., priority 2005, published 2015).
Entries after “also recorded” stand apart in the source; their conditions may differ. Where no end group is shown, it is not given here.

Experiments:
Type in all cases: in vivo
rat incisional wounds [1] = assay: Macroscopic wound quality (VAS) of day three rat incisional wounds; conditions: day 0 and 1, p<0.05 vs naïve wounds, FIG. 1
Protocol: The effects of the peptide on wound healing and scar formation were assessed with reference to the following parameters: • i) The macroscopic quality of the wounds. This was assessed using a rat macroscopic wound assessment protocol as follows. Macroscopic appearance was scored using a Visual Analogue Scale (VAS) consisting of a 10 cm line representing a scale from 0 (denoted by a mark at 0 cm) indicating a “good” wound to 10 (denoted by a mark at 10 cm) indicating a “poor” wound. In assessing the quality of the wound a mark representative of the score conferred was made on the 10 cm line based on the gape and quality of healing of the wound. The best-healed wounds were scored towards the good wound end of the scale (the left hand side of the VAS line) and the poorly healed ones were scored towards the poor wound end of the scale (the right hand side of the VAS line). The marks awarded were measured from the left hand side to provide the final value for the wound assessment in centimetres (to 1 decimal place). • ii) The microscopic width of wounds. The microscopic width of wounds was measured using image analysis of histological sections of wounds. Wounds were analysed using a Leica DM RXA Microscope and a Leica QWin Image Analyser. […] The extent of re-epithelialisation of wounds was measured using image analysis of histological sections of wounds. […]

rat incisional wounds [2] = assay: Microscopic wound width by image analysis of day three rat incisional wounds; conditions: for wound width at the mid-points of incisional wounds: FIG. 3; for wound width at the top of incisional wounds: FIG. 2
Protocol: (§1) The effects of the peptide on wound healing and scar formation were assessed with reference to the following parameters: • i) The macroscopic quality of the wounds. This was assessed using a rat macroscopic wound assessment protocol as follows. Macroscopic appearance was scored using a Visual Analogue Scale (VAS) consisting of a 10 cm line representing a scale from 0 (denoted by a mark at 0 cm) indicating a “good” wound to 10 (denoted by a mark at 10 cm) indicating a “poor” wound. In assessing the quality of the wound a mark representative of the score conferred was made on the 10 cm line based on the gape and quality of healing of the wound. The best-healed wounds were scored towards the good wound end of the scale (the left hand side of the VAS line) and the poorly healed ones were scored towards the poor wound end of the scale (the right hand side of the VAS line). The marks awarded were measured from the left hand side to provide the final value for the wound assessment in centimetres (to 1 decimal place). • ii) The microscopic width of wounds. The microscopic width of wounds was measured using image analysis of histological sections of wounds. Wounds were analysed using a Leica DM RXA Microscope and a Leica QWin Image Analyser. Linear wound width was measured with a straight line from the left wound margin (where the epidermis begins to thicken) to the right wound margin (where the epidermis begins to thicken). • iii) The re-epithelialisation of wounds. The extent of re-epithelialisation of wounds was measured using image analysis of histological sections of wounds. The percentage re-epithelialisation was calculated by first measuring the non-epithelialised wound diameter. The non-epithelialised wound length was measured with a straight line from the left hand non-epithelialised wound edge to the right hand non-epithelialised wound edge. The non-epithelialised wound edges were identified as the current position of the epithelium in the wound during healing. The re-epithelialisation width was then calculated by subtracting the non re-epithelialised width from the wound width. The percentage re-epithelialisation was then calculated accordingly. • iv) The microscopic quality of the wounds. This was assessed using microscopic Wound Index sheets analysed in accordance with the protocol described below. Evaluation of the microscopic quality of the wounds included an assessment of inflammatory response present in the wounds, as well as assessment of the cellularity of the wounds.
(§2) Rat incisional wounds formed in accordance with well-accepted experimental models (previously described in Shah et al. 1994) were treated with peptide Ala-Tyr-Met-Thr-Met-Lys-Ile-Arg-Asn (Sequence ID No. 2) at concentrations of 50, 125, 250 […] ng/100 μl. Treated and control wounds were harvested at three days post-wounding, and scars derived from treated and control wounds harvested at seventy days post-wounding.
(§3) Four wounds were made on each experimental animal (rat), of which two were treated with the trial concentrations of the peptide. The peptide was administered by intradermal injection on the day of wounding and at one day following wounding.
The experimental animals for wound analysis were killed on the third day post-wounding, and wounds harvested for histology.
Wound widths and percentage re-epithelialisation of incisions were measured by Image Analysis in accordance with the protocols described above. […]

rat incisional wounds [3] = assay: Percentage re-epithelialisation by image analysis of day three rat incisional wounds; conditions: FIG. 4
Protocol: The effects of the peptide on wound healing and scar formation were assessed with reference to the following parameters: • i) The macroscopic quality of the wounds. This was assessed using a rat macroscopic wound assessment protocol as follows. Macroscopic appearance was scored using a Visual Analogue Scale (VAS) consisting of a 10 cm line representing a scale from 0 (denoted by a mark at 0 cm) indicating a “good” wound to 10 (denoted by a mark at 10 cm) indicating a “poor” wound. In assessing the quality of the wound a mark representative of the score conferred was made on the 10 cm line based on the gape and quality of healing of the wound. The best-healed wounds were scored towards the good wound end of the scale (the left hand side of the VAS line) and the poorly healed ones were scored towards the poor wound end of the scale (the right hand side of the VAS line). The marks awarded were measured from the left hand side to provide the final value for the wound assessment in centimetres (to 1 decimal place). • ii) The microscopic width of wounds. The microscopic width of wounds was measured using image analysis of histological sections of wounds. Wounds were analysed using a Leica DM RXA Microscope and a Leica QWin Image Analyser. Linear wound width was measured with a straight line from the left wound margin (where the epidermis begins to thicken) to the right wound margin (where the epidermis begins to thicken). • iii) The re-epithelialisation of wounds. The extent of re-epithelialisation of wounds was measured using image analysis of histological sections of wounds. The percentage re-epithelialisation was calculated by first measuring the non-epithelialised wound diameter. The non-epithelialised wound length was measured with a straight line from the left hand non-epithelialised wound edge to the right hand non-epithelialised wound edge. […] The re-epithelialisation width was then calculated by subtracting the non re-epithelialised width from the wound width. The percentage re-epithelialisation was then calculated accordingly. • iv) The microscopic quality of the wounds. […]

rat incisional wounds [4] = assay: Microscopic Wound Index (wound width, cellularity, inflammation, epithelial covering) of day three rat incisional wounds; conditions: for wound index score / wound width score (Wound Index parameter): day three, combined scores of 3 observers; for wound index score: FIG. 5; for wound width score (Wound Index parameter): FIG. 6
Protocol: as §1
Wound index assesses the quality of the wound and gives an assessment based upon the following parameters: wound width (scored out of 10; 1 being a very narrow wound and 10 being a very wide wound); total cellularity of the wound (scored out of 5; 1 being a wound containing a low number of cells and 5 being a wound with a high number of cells); inflammatory cell number (scored out of 5; 1 being a low number of inflammatory cells and 5 being a high number of inflammatory cells); and epithelial covering (scored 0 for complete coverage and 1 for incomplete coverage). The final wound index score is derived by adding the scores for each parameter. A higher wound index value indicates a wound of low quality, whilst a lower wound index value represents a wound of relatively higher quality. • v) The macroscopic quality of scars. This was assessed using a rat macroscopic scar assessment protocol as follows. Macroscopic appearance was scored using a Visual Analogue Scale (VAS) consisting of a 10 cm line representing a scale from 0 corresponding to normal skin to 10 corresponding to a bad scar. A mark was made on the 10 cm line based on an overall assessment of the scar taking into account parameters such as the height, width, contour and colour of the scar. […]

rat incisional wounds [5] = assay: Macroscopic scar quality (VAS) of day seventy scars from rat incisional wounds; conditions: FIG. 9
Text: Wound index assesses the quality of the wound and gives an assessment based upon the following parameters: wound width (scored out of 10; 1 being a very narrow wound and 10 being a very wide wound); total cellularity of the wound (scored out of 5; 1 being a wound containing a low number of cells and 5 being a wound with a high number of cells); inflammatory cell number (scored out of 5; 1 being a low number of inflammatory cells and 5 being a high number of inflammatory cells); and epithelial covering (scored 0 for complete coverage and 1 for incomplete coverage). The final wound index score is derived by adding the scores for each parameter. A higher wound index value indicates a wound of low quality, whilst a lower wound index value represents a wound of relatively higher quality. • v) The macroscopic quality of scars. This was assessed using a rat macroscopic scar assessment protocol as follows. Macroscopic appearance was scored using a Visual Analogue Scale (VAS) consisting of a 10 cm line representing a scale from 0 corresponding to normal skin to 10 corresponding to a bad scar. A mark was made on the 10 cm line based on an overall assessment of the scar taking into account parameters such as the height, width, contour and colour of the scar. The best scars (typically small width and colour, height and contour like normal skin) were scored towards the normal skin end of the scale (the left hand side of the VAS line) and bad scars (typically large width, raised with uneven contours and whiter colour) were scored towards the bad scar end of the scale (the right hand side of the VAS line). The marks were measured from the left hand side to provide the final value for the scar assessment in centimetres (to 1 decimal place).
as §2, §3
Scars for analysis were harvested from experimental animals killed on the seventieth day post-wounding.
Macroscopic quality of scars was assessed using macroscopic scar assessment sheets scored by two observers in accordance with the protocols described above.
Statistical analysis was carried out using a one-factor analysis of variance (ANOVA) followed by the Mann-Whitney U (MWU) test. […]

[6] = 125 ng/100 μl, p<0.01 vs naïve wounds

AYMTMKIRN [peptide of Sequence ID No. 2, peptide based on the C-terminal portion of interleukin 10 (IL-10)]
macroscopic visual analogue (VAS) score, wound quality (rat incisional wounds [1]; 125 ng/100 μl intradermal): significant improvement in the macroscopic quality
macroscopic visual analogue (VAS) score, wound quality (rat incisional wounds [1]; 250 ng/100 μl intradermal): significant improvement in the macroscopic quality
wound width at the mid-points of incisional wounds (rat incisional wounds [2]; 50 ng/100 μl, p<0.05 vs naïve wounds): significant decrease in wound width
wound width at the top of incisional wounds (rat incisional wounds [2]; [6]): significant decrease in wound width
wound width at the mid-points of incisional wounds (rat incisional wounds [2]; [6]): significant decrease in wound width
wound width at the top of incisional wounds (rat incisional wounds [2]; 250 ng/100 μl, p<0.01 vs naïve wounds): significant decrease in wound width
wound width at the mid-points of incisional wounds (rat incisional wounds [2]; 250 ng/100 μl, p<0.01 vs naïve, p<0.05 vs diluent control wounds): significant decrease in wound width
percentage of the tops of incisional wounds covered by re-epithelialisation (rat incisional wounds [3]; 50 ng/100 μl): appeared to exhibit an increase in the extent of re-epithelialisation
percentage of the tops of incisional wounds covered by re-epithelialisation (rat incisional wounds [3]; 125 ng/100 μl): appeared to exhibit an increase in the extent of re-epithelialisation
percentage of the tops of incisional wounds covered by re-epithelialisation (rat incisional wounds [3]; 250 ng/100 μl, p<0.01 vs naïve, p<0.05 vs diluent alone): significant increase in the extent of re-epithelialisation
wound index score (rat incisional wounds [4]; 50 ng/100 μl): lower wound index scores than did control wounds
wound width score (Wound Index parameter) (rat incisional wounds [4]; 50 ng/100 μl): lower wound width scores than controls
wound index score (rat incisional wounds [4]; 125 ng/100 μl): lower wound index scores than did control wounds
wound width score (Wound Index parameter) (rat incisional wounds [4]; 125 ng/100 μl): lower wound width scores than controls
wound index score (rat incisional wounds [4]; 250 ng/100 μl): lower wound index scores than did control wounds; also recorded: lowest wound index scores
wound width score (Wound Index parameter) (rat incisional wounds [4]; 250 ng/100 μl): lower wound width scores than controls
cellularity of treated wounds (rat incisional wounds [4]; day three incisional wounds, combined observers, FIG. 7): did not reduce cellularity of treated wounds
inflammatory response in treated wounds (rat incisional wounds [4]; day three incisional wounds, combined observers, FIG. 8): did not reduce cellularity of treated wounds, or cause a reduction of the inflammatory response
macroscopic visual analogue (VAS) score, scar quality (rat incisional wounds [5]; 50 ng/100 μl, p<0.05 vs naïve control wounds): significantly improved scarring
macroscopic visual analogue (VAS) score, scar quality (rat incisional wounds [5]; 125 ng/100 μl, p<0.05 vs naïve control wounds): significantly improved scarring
macroscopic visual analogue (VAS) score, scar quality (rat incisional wounds [5]; 250 ng/100 μl, p<0.01 vs naïve and diluent control wounds, 2 observers): significant improvement in macroscopic quality
macroscopic visual analogue (VAS) score, scar quality (rat incisional wounds [5]; 500 ng/100 μl, p<0.05 vs naïve control wounds): significantly improved scarring
